Laboratory results from US6242450A, “5-HT1F antagonists” (Eli Lilly and Company, priority 1999, dated 2001).

Tested on: male Wister rats
Test: Social interaction test of anxiety
Type: in vivo
Conditions: rat, 20 mg/kg intraperitoneal, 1 hour before test, 5 minutes observation, significance at p<0.01
Method: The procedure for this assay is summarized below.
All experiments were performed on male Wister rats (Harlan laboratories, 275-300 gm). The rats were individually housed in a temperatu,re controlled room (72° F.) on a 12 hour day/night cycle. The rats were provided food and water ad libitum.
Approximately 40 mg of the test compound was weighed into a 20 mL glass vial. To this solid were added 80 μL of lactic acid (85%). The mixture was sonicated for 2 minutes and then 4 mL of distilled water was added in 1 mL increments. Sonication of this mixture was continued until all of the solid had dissolved. Following sonication, the pH of the mixture was raised by the addition of dilute aqueous sodium hydroxide until the mixture reached a pH of about 5.5.
Each rat was weighed and the test compound administered by intraperitoneal injection at 20 mg/kg of body weight. […]
Experimental anxiety was measured by a social interaction test. […] A video camera was fixed above the social interaction box and all behavioral tests were recorded. […] The amount of time that the rat which received test compound spent interacting (i.e. grooming, sniffing, crawling upon) with the other rat was recorded. […]
Social interaction data was analyzed as total interaction time in seconds and the raw scores were compared between baseline and treatment. […]

With `O[C@H](COc1ccc2ccccc2c1)CN1CCC(O)(c2cnc3ccccc3c2)CC1` [Example 37, 1-((2S)-hydroxy-3-(naphth-2-yloxy)prop-1-yl)-4-hydroxy-4-(quinolin-3-yl)piperidine] the “social interaction time as compared to baseline” value was “significantly increase social interaction time as compared to baseline”.
